“And” between values parts separate entries of the source, which are not always exact repeats. Equal values may be shown once.
Tests used:
[1] = system: P. aeruginosa CMZ091 (Mex XY overproducer); test: Antibiotic susceptibility testing (broth micro-dilution MIC), strain CMZ091; assay type: cell-based, Pseudomonas aeruginosa; details: Pseudomonas aeruginosa, read-out: Minimal Inhibitory Concentration
Protocol: (§1) Experiments were performed on the BAC-SCREEN platform of the UMR-MD1, with a Freedom EVO 150 liquid handling system (Tecan, Lyon, France).
(§2) We concluded that compound 3 was the best compound and suitable for a more detailed study. The same experiment was performed using chloramphenicol (4 mg/L) in combination with 3 (10 μM final concentration). Amongst the 20 clinical isolates, the growth of 15 (75%) was impaired, while 5 (25%) were resistant (data not shown). These experiments were performed to study the effect of our compounds on the natural resistance of P. aeruginosa. In addition, we were wondering if compound 3 could also increase susceptibility to other antibiotic families including ß-Lactams, fluoroquinolones and aminoglycosides, that are representative of the main classes of anti-pseudomonal agents. Experiments were performed with the ß-lactams ceftazidime and ticarcillin and ciprofloxacin and amikacin. […] . […] To better characterize compound 3, we first searched for the minimum concentration of compound that allowed killing of bacteria by doxycycline, and PAßN was used as the reference molecule.

P. aeruginosa PA01 (wt) = test: Antibiotic susceptibility testing (broth micro-dilution MIC), strain PA01; assay type: cell-based, Pseudomonas aeruginosa; details: Pseudomonas aeruginosa, read-out: Minimal Inhibitory Concentration
Protocol: as §1
(§3) The same experiment was performed using chloramphenicol (4 mg/L) in combination with 3 (10 μM final concentration). […] These experiments were performed to study the effect of our compounds on the natural resistance of P. aeruginosa. […] Experiments were performed with the ß-lactams ceftazidime and ticarcillin and ciprofloxacin and amikacin.

[2] = system: P. aeruginosa PA01 ERY^R (Mex CD overproducer); test: microbe, parasite or virus in culture; assay type: cell-based, Pseudomonas aeruginosa; details: Pseudomonas aeruginosa, read-out: Minimal Inhibitory Concentration
Protocol: as §1, §3

human fibroblasts = test: WST-1 cytotoxicity test, fibroblasts; assay type: cell-based; details: Homo sapiens, Fibroblast; WST1, 24 h; mean +/- SD, 2 independent experiments
Protocol: (§4) CHO-K1 cells (ATCC-LGC Standards Sarl (Molsheim, France) and human fibroblasts (Clinisciences, Paris, France) were maintained in McCoy’s 5A and DMEM media, respectively, supplemented with 10% bovine calf serum, 2 mM glutamine, and 100 U/mL/10 μg/mL penicillin/streptomycin. They were incubated at 37°C in a humidified atmosphere containing 5% CO2. The cell lines were seeded in 96-well plates and incubated overnight. The cytotoxic effects of compounds were assessed by the colorimetric WST-1 cell proliferation assay as previously described. Briefly, a range of compound concentrations from 30 μM to 1200 μM was added to triplicate cultures, and cells were incubated at 37°C for 24 h. At the end of the incubation period, cultures were washed three times with phosphate buffer saline (PBS) and incubated in fresh culture medium containing 10% WST-1 for an additional 30 min. Cell viability was evaluated by measuring the WST-1 absorbance at 450 nm in a microplate spectrophotometer MRX1 II (Dynex technologies, Chantilly, VA, USA). The Inhibitory Concentration 50% (IC50) was chosen to evaluate the cytotoxicity of compounds. IC50 was defined as the concentration of a compound that induced a 50% decrease in viable cells. Doxorubicin was used as a positive control.

[3] = system: twenty clinical isolates of P. aeruginosa; test: Combined antibiotic / polyamino-isoprenic derivative on MH agar plates, clinical isolates; assay type: cell-based, Pseudomonas aeruginosa; details: doxycycline 2 mg/L + compound 10 μM; 20 clinical isolates
Protocol: MH agar plates were prepared, containing 2 mg/L doxycycline and 2 mg/L doxycycline in combination with compounds at a concentration of 10 μM. Bacteria, 5 μL of a suspension of each clinical isolate adjusted to 5 x 10^5 colony-forming units per ml were spotted on each plate and growth was monitored after a 18 h period of incubation at 37°C.
PA01 is a well-studied reference strain of P. aeruginosa, however to extend our study we considered strains recently isolated from hospitalized patients. Thus, we decided to test this combination of doxycycline (2mg/L) with polyamino-isoprenic compounds (10 μM) on twenty clinical isolates recently isolated from the HIA-Laveran (see M&M section and S1 Table).

[4] = system: P. aeruginosa PA0-7H (Mex EF overproducer); test: Antibiotic susceptibility testing (broth micro-dilution MIC), strain PA0-7H; assay type: cell-based, Pseudomonas aeruginosa; details: Pseudomonas aeruginosa, read-out: Minimal Inhibitory Concentration
Protocol: as §1, §2

CHO-K1 cells = test: cells; assay type: cell-based, Chinese Hamster; details: Cricetulus griseus, CHO-K1; WST1, 24 h; mean +/- SD, 2 independent experiments
Protocol: as §4

[5] = system: P. aeruginosa PT629 (Mex AB overproducer); test: Antibiotic susceptibility testing (broth micro-dilution MIC), strain PT629; assay type: cell-based, Pseudomonas aeruginosa; details: Pseudomonas aeruginosa, read-out: Minimal Inhibitory Concentration
Protocol: as §1, §2

[6] = system: P. aeruginosa FB1 (Mex B deleted); test: Antibiotic susceptibility testing (broth micro-dilution MIC), strain FB1; assay type: cell-based; details: Pseudomonas aeruginosa, read-out: Minimal Inhibitory Concentration
Protocol: as §1

| SMILES | MIC [1] | MIC (P. aeruginosa PA01 (wt)) | MIC [2] | IC50 (human fibroblasts) | isolates with doxycycline susceptibility restored [3] | MIC [4] | IC50 (CHO-K1 cells) | MIC [5] | MIC [6] |
| --- | --- | --- | --- | --- | --- | --- | --- | --- | --- |
| CC(C)=CCCC(C)=CCCC(C)=CCNCCCN(CCCN)CCCN [Compound 4] | 49 µg/mL and 125 µM | 49 µg/mL and 125 µM | 25 µg/mL and 62.5 µM | 136 ± 7.9 µM | 88% | 49 µg/mL and 125 µM | 363 ± 20.3 µM | 49 µg/mL and 125 µM | 49 µg/mL and 125 µM |
| COc1cccc2c1C(=O)c1c(O)c3c(c(O)c1C2=O)C[C@@](O)(C(=O)CO)C[C@@H]3O[C@H]1C[C@H](N)[C@H](O)[C@H](C)O1 [Doxorubicin, reference compound] | – | – | – | 12.4 ± 2.1 µM | – | – | 48.3 ± 6.8 µM | – | – |

Reference: paper PMC4859512, “Polyamino-Isoprenic Derivatives Block Intrinsic Resistance of P. aeruginosa to Doxycycline and Chloramphenicol In Vitro” (PLoS ONE, 2016)
